{
  "source": "patent US9371363B2",
  "about": "“Peptides and their use” (Novabiotics Limited, priority 2007, dated 2016)",
  "key": {"S. aureus": {"tested_on": "S. aureus", "assay_type": "cell-based", "description": "(§1) Broth Dilution Antibacterial Susceptibility Testing\n(§2) The sensitivity of relevant bacterial strains to the peptides (was determined using Clinical Laboratory Standard Institute (CLSI; formerly NCCLS) Approved Standards. Bacterial susceptibility was tested using “Methods for Dilution Antimicrobial Susceptibility Tests for Bacteria That Grow […]; Approved Standard—Seventh Edition M7-A7”"}, "P. acnes": {"tested_on": "P. acnes", "assay_type": "cell-based", "description": "as §1, §2"}, "[1]": {"details": "P. acnes, values marked * in mg/ml"}},
  "note": "Where two headings read alike, the source gives them in different places. Where no end group is shown, it is not given here.",
  "data": [
    {"compound": "KLTKPKPQAESKKKKK [NP332]", "values": [
      {"measurement": "Minimum Inhibitory Concentration, antimicrobial activity, S. aureus", "setting": "S. aureus", "result": ">2", "unit": "mM"}
    ]},
    {"compound": "N=C(N)NCCC[C@H](NC(=O)[C@H](CCCNC(=N)N)NC(=O)[C@H](CCCNC(=N)N)NC(=O)[C@H](CCCNC(=N)N)NC(=O)[C@H](CCCNC(=N)N)NC(=O)[C@H](CCCNC(=N)N)NC(=O)[C@H](CCCNC(=N)N)NC(=O)[C@H](CCCNC(=N)N)NC(=O)[C@H](CCCNC(=N)N)NC(=O)[C@H](CCCNC(=N)N)NC(=O)[C@@H](N)CCCNC(=N)N)C(=O)O", "note": "[NP317, RRRRRRRRRRR (SEQ ID NO: 13)]", "values": [
      {"measurement": "Minimum Inhibitory Concentration, antimicrobial activity, S. aureus", "setting": "S. aureus", "result": 0.25, "unit": "mM"}
    ]},
    {"compound": "(K)n, n = 3-14 [NP112]", "values": [
      {"measurement": "Minimum Inhibitory Concentration, antimicrobial activity, P. acnes", "setting": "P. acnes; [1]", "result": "0.1* mg/ml"}
    ]},
    {"compound": "KVRQGTLKKAR [NP335, KVRQGTLKKAR (SEQ ID NO: 29)]", "values": [
      {"measurement": "Minimum Inhibitory Concentration, antimicrobial activity, S. aureus", "setting": "S. aureus", "result": ">2", "unit": "mM"}
    ]},
    {"compound": "RRVRRVRR [NP309, RRVRRVRR (SEQ ID NO: 9)]", "values": [
      {"measurement": "Minimum Inhibitory Concentration, antimicrobial activity, P. acnes", "setting": "P. acnes", "result": 1, "unit": "mM"}
    ]},
    {"compound": "(R)n, n = >402 [NP123]", "values": [
      {"measurement": "Minimum Inhibitory Concentration, antimicrobial activity, P. acnes", "setting": "P. acnes; [1]", "result": "0.01* mg/ml"}
    ]},
    {"compound": "(H)n, n = >32 [NP132]", "values": [
      {"measurement": "Minimum Inhibitory Concentration, antimicrobial activity, P. acnes", "setting": "P. acnes; [1]", "result": "0.1* mg/ml"}
    ]},
    {"compound": "KKKDKVKK [NP334, KKKDKVKK (SEQ ID NO: 28)]", "values": [
      {"measurement": "Minimum Inhibitory Concentration, antimicrobial activity, S. aureus", "setting": "S. aureus", "result": ">2", "unit": "mM"}
    ]},
    {"compound": "RRWRWR [NP323, RRWRWR (SEQ ID NO: 19)]", "values": [
      {"measurement": "Minimum Inhibitory Concentration, antimicrobial activity, S. aureus", "setting": "S. aureus", "result": ">2", "unit": "mM"}
    ]},
    {"compound": "KKKKKKKKK [NP345, KKKKKKKKK (SEQ ID NO: 33)]", "values": [
      {"measurement": "Minimum Inhibitory Concentration, antimicrobial activity, P. acnes", "setting": "P. acnes", "result": 2.5, "unit": "mM"}
    ]},
    {"compound": "RRRWRRR [NP325, RRRWRRR (SEQ ID NO: 21)]", "values": [
      {"measurement": "Minimum Inhibitory Concentration, antimicrobial activity, S. aureus", "setting": "S. aureus", "result": ">2", "unit": "mM"}
    ]},
    {"compound": "RRVRVR [NP304, RRVRVR (SEQ ID NO: 4)]", "values": [
      {"measurement": "Minimum Inhibitory Concentration, antimicrobial activity, S. aureus", "setting": "S. aureus", "result": ">2", "unit": "mM"}
    ]},
    {"compound": "RRRVRRR [NP306, RRRVRRR (SEQ ID NO: 6)]", "values": [
      {"measurement": "Minimum Inhibitory Concentration, antimicrobial activity, S. aureus", "setting": "S. aureus", "result": ">2", "unit": "mM"}
    ]},
    {"compound": "GKKEKPEKKVKK [NP331, GKKEKPEKKVKK (SEQ ID NO: 25)]", "values": [
      {"measurement": "Minimum Inhibitory Concentration, antimicrobial activity, S. aureus", "setting": "S. aureus", "result": ">2", "unit": "mM"}
    ]},
    {"compound": "N=C(N)NCCC[C@@H](N)C(=O)N[C@H](CCCNC(=N)N)C(=O)N[C@H](CCCNC(=N)N)C(=O)N[C@H](CCCNC(=N)N)C(=O)N[C@H](CCCNC(=N)N)C(=O)N[C@H](CCCNC(=N)N)C(=O)N[C@H](CCCNC(=N)N)C(=O)N[C@H](CCCNC(=N)N)C(=O)N[C@H](CCCNC(=N)N)C(=O)N[C@H](CCCNC(=N)N)C(=O)N[C@H](CCCNC(=N)N)C(=O)N[C@H](CCCNC(=N)N)C(=O)N[C@H](CCCNC(=N)N)C(N)=O", "note": "[NP341, dRdRdRdRdRdRdRdRdRdRdRdRdR—CONH (SEQ ID NO: 31)]", "values": [
      {"measurement": "Minimum Inhibitory Concentration, antimicrobial activity, S. aureus", "setting": "S. aureus", "result": 0.125, "unit": "mM"}
    ]},
    {"compound": "RRVRR [NP303, RRVRR (SEQ ID NO: 3)]", "values": [
      {"measurement": "Minimum Inhibitory Concentration, antimicrobial activity, S. aureus", "setting": "S. aureus", "result": ">2", "unit": "mM"}
    ]},
    {"compound": "(R)n, n = 86-402 [NP122]", "values": [
      {"measurement": "Minimum Inhibitory Concentration, antimicrobial activity, P. acnes", "setting": "P. acnes; [1]", "result": "0.01* mg/ml"}
    ]},
    {"compound": "RRWRWRR [NP326, RRWRWRR (SEQ ID NO: 22)]", "values": [
      {"measurement": "Minimum Inhibitory Concentration, antimicrobial activity, S. aureus", "setting": "S. aureus", "result": ">2", "unit": "mM"}
    ]},
    {"compound": "RRVRVRR [NP307, RRVRVRR (SEQ ID NO: 7)]", "values": [
      {"measurement": "Minimum Inhibitory Concentration, antimicrobial activity, S. aureus", "setting": "S. aureus", "result": ">2", "unit": "mM"}
    ]},
    {"compound": "RRVVR [NP302, RRVVR (SEQ ID NO: 2)]", "values": [
      {"measurement": "Minimum Inhibitory Concentration, antimicrobial activity, S. aureus", "setting": "S. aureus", "result": ">2", "unit": "mM"}
    ]},
    {"compound": "RRWRR [NP322, RRWRR (SEQ ID NO: 18)]", "values": [
      {"measurement": "Minimum Inhibitory Concentration, antimicrobial activity, S. aureus", "setting": "S. aureus", "result": ">2", "unit": "mM"}
    ]},
    {"compound": "RRWWR [NP321, RRWWR (SEQ ID NO: 17)]", "values": [
      {"measurement": "Minimum Inhibitory Concentration, antimicrobial activity, S. aureus", "setting": "S. aureus", "result": ">2", "unit": "mM"}
    ]},
    {"compound": "RRWWRR [NP324, RRWWRR (SEQ ID NO: 20)]", "values": [
      {"measurement": "Minimum Inhibitory Concentration, antimicrobial activity, S. aureus", "setting": "S. aureus", "result": 1, "unit": "mM"}
    ]},
    {"compound": "PKTKAKAKAKKGKGKD [NP336]", "values": [
      {"measurement": "Minimum Inhibitory Concentration, antimicrobial activity, S. aureus", "setting": "S. aureus", "result": ">2", "unit": "mM"}
    ]},
    {"compound": "KKKKKEGKKQEKMLD [NP333]", "values": [
      {"measurement": "Minimum Inhibitory Concentration, antimicrobial activity, S. aureus", "setting": "S. aureus", "result": ">2", "unit": "mM"}
    ]},
    {"compound": "RRVVRR [NP305, RRVVRR (SEQ ID NO: 5)]", "values": [
      {"measurement": "Minimum Inhibitory Concentration, antimicrobial activity, S. aureus", "setting": "S. aureus", "result": ">2", "unit": "mM"}
    ]},
    {"compound": "RWRWR [NP320, RWRWR (SEQ ID NO: 16)]", "values": [
      {"measurement": "Minimum Inhibitory Concentration, antimicrobial activity, S. aureus", "setting": "S. aureus", "result": ">2", "unit": "mM"}
    ]},
    {"compound": "RVRVR [NP301, RVRVR (SEQ ID NO: 1)]", "values": [
      {"measurement": "Minimum Inhibitory Concentration, antimicrobial activity, S. aureus", "setting": "S. aureus", "result": ">2", "unit": "mM"}
    ]},
    {"compound": "RRWRRWRR [NP328, RRWRRWRR (SEQ ID NO: 24)]", "values": [
      {"measurement": "Minimum Inhibitory Concentration, antimicrobial activity, S. aureus", "setting": "S. aureus", "result": ">2", "unit": "mM"}
    ]},
    {"compound": "RRRVVRRR [NP308, RRRVVRRR (SEQ ID NO: 8)]", "values": [
      {"measurement": "Minimum Inhibitory Concentration, antimicrobial activity, S. aureus", "setting": "S. aureus", "result": ">2", "unit": "mM"}
    ]}
  ]
}
